Data from patent EP0369035A1, “AGENT FOR TREATING PANCREATITIS OR THE LIKE” (priority 1988, dated 1989).

Key:
human plasma kallikrein = molecular target: T1, human plasma kallikrein (Homo sapiens, UniProt P03952); test: Anti-plasma kallikrein activity: inhibition of S-2302 degradation; assay type: biochemical; conditions: substrate S-2302, 37°C, pH 7.8; read-out: Plasma kallikrein S-2302 (I50)
T1 construct: 50 µl of 0.12 units/ml human plasma kallikrein solution
Procedure: 2) Assay of anti-plasma kallikrein activity Assay method of inhibition of S-2302 degradation
(§1) The test substance was dissolved in a 0.05 M Tris-HC1 (pH 7.8) buffer to make a total volume of 400 µl, and 50 µl of a 2 mM S-2302 solution was added to the solution. After incubation at 37°C for 5 minutes in an incubator, an addition of 50 µl of 0.12 units/ml human plasma kallikrein solution, and incubation at 37°C for 5 minutes, the reaction was terminated by an addition of 50 µl of 50% acetic acid.

human urokinase = human urokinase (Homo sapiens, UniProt P00749); test: Anti-urokinase activity: inhibition of S-2444 degradation; assay type: biochemical; conditions: substrate S-2444, 37°C, pH 8.8; read-out: Urokinase S-2444 (I50)
Procedure: 3) Assay of anti-urokinase activity Assay method of inhibition of S-2444 degradation
as §1, with “8.8)” for “7.8)”, “1” for “2”, “S-2444” for “S-2302”, “mixture.” for “solution.”, “500” for “0.12”, “urokinase” for “plasma kallikrein”

[1] = test system: experimental pancreatitis; test: Effect on experimental pancreatitis (sodium taurochorate + trypsin into the common bile duct), survival ratio; assay type: in vivo, SD-rats; set-up: Effect on experimental pancreatitis (100 mg/kg p.o.) After 24 hours / Effect on experimental pancreatitis (100 mg/kg p.o.) After 48 hours / Effect of existing control drug on experimental pancreatitis After 24 hours: unit not given here; conditions: survival ratio, 50 μg/kg/min x 80 min, rat
Text: [II] Effect on experimental pancreatitis
SD-rats, body weight of about 200 g were, starved overnight, and 10 to 24 animals were used in one group. Sodium pentobarbital was intraperioneally administered to anesthetize each rat, and then a cannula was inserted to the femoral vein for the administration of the test substance. After abdominal surgery, the bile duct was blocked at a part thereof proximate to the liver, by a clip, a polyethylene tube was inserted to the common bile duct at a part thereof most proximate to the duodenum, and 0.1 ml of solution containing 2 mg sodium taurochorate and 1000 U trypsin dissolved in physiological saline was injected retrogrodely. After removal of the clip and tube, the common bile duct was ligated and the abdomen was closed. Note, the test substance was dissolved in an injective 5% glucose solution, and in the case of a continuous infusion, the solution was administered over 80 minutes starting from 10 minutes before the generation of pancreatitis. In the case of oral administration, the test substance was administered through an oral catheter 30 minutes before the generation of pancreatitis. After 24 hours and 48 hours from the generation of pancreatitis, the survival ratio of the animals was calculated and compared with a control group.

in vivo = conditions: mouse, intravenous, ICR male mice, up-and-down method, read-out: Acute toxicity (LD50)
Procedure: ICR male mice 5 to 10 weeks old were used. The test substance was dissolved in a 5% dimethylsulfoxide aqueous solution, and the solution was intravenously administered in an amount of 0.1 to 0.2 ml/10 g body weight. An LD50 value was calculated by up-and-down method.

[2] = Measurement of half life in blood; assay type: in vivo; conditions: rat, iv; administered to the tail vein, SD-rats, plasma, HPLC
Procedure: [VI] Measurement of half life in blood
SD-rats 6 to 7 weeks old were used. The test substance was dissolved in an injective 5% glucose solution and administered to the tail vein. After the administration, blood samples were periodically obtained from the great vein and placed into heparinized test tubes. Plasma was separated by centrifugation and the test substance was extracted with ethyl acetate. After removal of the solvent, the residue was dissolved in 200 µl of methanol, and analyzed by high performance liquid chromatography. From the change of the concentration of the test substance in blood with time, a half life thereof in blood was calculated.

bovine factor Xa = molecular target: T2, bovine factor Xa (Bos taurus, UniProt P00743); test: Anti-FXa activity: inhibition of S-2222 degradation; assay type: biochemical; conditions: Table 3-2, existing control drugs; substrate printed as S-2238; read-out: FXa S-2238 (I50)
T2 construct: 0.05 ml of 0.3 vial/ml bovine factor Xa
T2 sequence (P00743 234-492 limits assumed): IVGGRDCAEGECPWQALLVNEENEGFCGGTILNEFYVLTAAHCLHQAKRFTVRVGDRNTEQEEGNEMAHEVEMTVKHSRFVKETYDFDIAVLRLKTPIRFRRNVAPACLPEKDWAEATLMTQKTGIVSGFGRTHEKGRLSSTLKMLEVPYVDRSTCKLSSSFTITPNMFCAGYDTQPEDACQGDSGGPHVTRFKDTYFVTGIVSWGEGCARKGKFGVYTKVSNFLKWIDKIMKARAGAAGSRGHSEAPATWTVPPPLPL
T2 sequence (P00743 41-180 partner limits assumed): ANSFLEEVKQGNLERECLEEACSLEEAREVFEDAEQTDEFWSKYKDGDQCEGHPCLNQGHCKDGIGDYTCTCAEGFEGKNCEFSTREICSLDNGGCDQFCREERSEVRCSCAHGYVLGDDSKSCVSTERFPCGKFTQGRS

T1 sequence (P03952 391-638 limits assumed): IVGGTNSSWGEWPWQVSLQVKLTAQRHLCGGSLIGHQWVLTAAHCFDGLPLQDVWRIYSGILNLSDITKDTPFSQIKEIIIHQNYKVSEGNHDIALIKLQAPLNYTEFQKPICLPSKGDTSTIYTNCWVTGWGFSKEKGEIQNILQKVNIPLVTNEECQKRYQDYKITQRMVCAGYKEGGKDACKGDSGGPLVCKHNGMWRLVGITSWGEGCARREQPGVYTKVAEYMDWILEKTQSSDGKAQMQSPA
T1 sequence (P03952 20-390 partner limits assumed): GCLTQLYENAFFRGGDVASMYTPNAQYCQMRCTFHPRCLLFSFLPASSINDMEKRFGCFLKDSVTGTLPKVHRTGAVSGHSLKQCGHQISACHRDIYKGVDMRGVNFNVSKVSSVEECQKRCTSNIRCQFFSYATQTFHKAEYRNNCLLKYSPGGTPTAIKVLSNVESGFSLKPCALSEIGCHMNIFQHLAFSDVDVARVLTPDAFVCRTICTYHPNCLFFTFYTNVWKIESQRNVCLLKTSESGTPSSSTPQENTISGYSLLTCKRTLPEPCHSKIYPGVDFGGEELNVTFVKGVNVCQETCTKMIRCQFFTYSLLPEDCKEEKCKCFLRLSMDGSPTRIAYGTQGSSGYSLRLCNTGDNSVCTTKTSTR

## N=C(N)c1ccc2cc(OC(=O)c3ccc(N=C(N)N)cc3)ccc2c1 [FUT-175, nafamostat mesilate, reference compound]
Human plasma kallikrein
  IC50: 0.08 µM
Human urokinase
  IC50: 0.01 µM
[1]
  Effect of existing control drug on experimental pancreatitis After 24 hours: 33.3
In vivo
  LD50: 24 mg/kg
[2]
  half-life: 2 to 3 min
Bovine factor Xa
  IC50: 5.8 µM
